In assay [1] the test system is Barley shoot tips / mature embryo explants. Put plainly: Multiple bud/shoot induction from barley mature embryo explants on bud induction media. The settings on record: for multiple bud/shoot induction in barley shoot tips: relatively high amount of cytokinin to 2,4-D, 2 weeks. Type of assay: in vivo. How it is done: To induce multiple buds/shoots from the leaf base of Barley shoot tips post co-culture, we applied medium with a high relative amount of cytokinin to auxin (measured by either concentration or relative activity). Explants were generally on these bud induction medium for a total of 2 weeks, after which presence of multiple buds/shoots was assessed (phenotype shown in FIG. 21, with data summarized in boxplot form in FIG. 22). […] In some experiments, after 1 week on induction media without selection, explants were transferred to induction media with selection. During this 2-week period explants were kept at 27 C 16/8 photoperiod. It may be possible to reduce chimerism in T0 Barley plants by extending this shoot multiplication step to 4-8 weeks.(9)
We followed this experiment up examining removal of 2,4-D from the bud induction phase, as well as its replacement with either picloram or fipexide.

For assay [2], the system named is LH244 maize iVAEs (immature embryos, 20 DAP). The experiment in a line: Glyphosate sensitivity (selection titer) of dried, frozen, rehydrated maize iVAEs on Regeneration II medium. Format: in vivo. The protocol:
Maize iVAEs (Immature Value-Added Explants) were prepared following the methods outlined below, and viability and glyphosate sensitivity of the dried, stored embryos were tested. These iVAEs were incubated for four days in a drying chamber with MgNO3 saturated salts and then stored at s −20° C. These frozen iVAEs were later pulled from storage and used to determine process survival as well as used in an experiment to determine sensitivity to the herbicide glyphosate (Millipore Sigma Glyphosate “N-(Phosphonomethyl) glycine”; Cat #337757-5G) for future use as a selection agent for these novel explants.
Post Storage Rehydration Method of the iVAE embryos: Dried maize embryos (iVAEs) were placed on a sterile plate of Regeneration Medium II) and incubated at room temperature for 1 hour. Afterward, sterile water was added and embryos were incubated at room temperature for an additional hour followed by gentile agitation to complete the rehydration process. Embryos were then placed on experimental media to determine survival as well as sensitivity to glyphosate. The rehydrated maize iVAEs were placed on media plates, evenly spaced, and each plate was sealed with porous tissue culture tape and incubated in growth chamber at 26° C. with 16/8 light/dark photoperiod with 60 μmol m-2 s-1. For up to 56 days of observation.
20 DAP LH244 ears were collected from self-pollinated plants in the greenhouse. The embryos were extracted using the iVAE protocol. The extracted and cleaned embryos were placed in a drying chamber with MgNO3 saturated salts for 4 days. LH244 embryos were frozen for 4 days, or until used, at −20° C. in a hermetically closed 50 mL Falcon tube
LH244 embryos were rehydrated as described in Example 9. Following rehydration, plates were set up using Regeneration II Medium. The first replicate has 30 embryos per plate, and the second only 22 per plate. The measurements are standardized to the number of surviving embryos, as measured by the number of embryos displaying coleoptile elongation. A subset of embryos was tested for viability using tetrazolium chloride (TTC).
We analyzed this experiment by counting the percent germination, looking at stress phenotype and using the viability stain tetrazolium chloride (TTC). In general, during germination, green tissue is healthy, purple tissue is stressed and producing anthocyanins, and silver or white tissue is not producing chlorophyll.

This note sets out measurements from patent US12022787B2, “Efficient monocot embryo extraction and preservation methods and novel uses thereof” (Wisconsin Alumni Research Foundation, priority 2019, dated 2024).

For `c1ccc(CNc2ncnc3nc[nH]c23)cc1` [BAP, 6-benzylaminopurine], the “multiple bud/shoot induction in barley shoot tips” value in assay [1] is given as “could induce multiple buds/shoots”.
Regarding `O=C(Nc1ccccc1)Nc1cnns1` [TDZ, thidiazuron], the “explant phenotype after 2 weeks on bud induction media” value in assay [1] (3 ppm TDZ, 1 ppm 2,4-D) was “multiple shooting/budding phenotype”. Further, the “multiple bud/shoot induction in barley shoot tips” value in assay [1] is listed as “could induce multiple buds/shoots”.
In the case of `O=C(COc1ccc(Cl)cc1)N1CCN(Cc2ccc3c(c2)OCO3)CC1` [fipexide], in assay [1] (3 ppm TDZ, 10 ppm fipexide), the “explant health versus controls” value is listed as “looked healthier than controls on 2,4-D media”. In addition, the “explant phenotype after 2 weeks on bud induction media” value in assay [1] (3 ppm TDZ, 10 ppm fipexide) was “multiple shooting/budding phenotype”; in assay [1] (10 ppm fipexide, TDZ removed), “germinating phenotype”; in assay [1] (100 ppm fipexide), “explant sensitivity”.
Regarding `O=C(O)CNCP(=O)(O)O` [glyphosate, N-(Phosphonomethyl) glycine], the “damage (loss of greening shoots)” value in assay [2] (10 μM glyphosate treatment plates, at 27 days) worked out at 90%. For the same compound, the “reduction in frequency of greening shoots (impairment)” value in assay [2] (50 μM glyphosate treatment plates, 10 days after start) is on record as “about 80%”. Further, the “glyphosate concentration giving apparent reduction of anthocyanins synthesis” value in assay [2] (after 49 days) is not below 100 µM. For the same compound, the “anthocyanin production in treated embryos” value in assay [2] (in response to glyphosate) is “significant anthocyanin production”.
